Here are results for five compounds from ChEMBL document CHEMBL5370646, “Synthesis and Conformational Analysis of FR901464-Based RNA Splicing Modulators and Their Synergism in Drug-Resistant Cancers” (J Med Chem, 2023).

Molecules are shown by their SMILES.

Data set [1] has as its system HCT-116. Nature of the data set: Growth inhibition of human HCT-116 cells assessed as reduction in cell viability incubated for 72 hrs. Type of data set: functional.
A further data set has as its system SW48. The experiment in a line: Growth inhibition of human SW48 cells assessed as reduction in cell viability incubated for 72 hrs. The data set is classed as functional.
The subject of the next data set is A549. The experiment in a line: Growth inhibition of human A549 cells assessed as reduction in cell viability incubated for 72 hrs. Type of data set: functional.
A further data set concerns DMS-53. Nature of the data set: Growth inhibition of human DMS-53 cells assessed as reduction in cell viability incubated for 72 hrs. Type of data set: functional.
Another data set concerns DMS-114. Nature of the data set: Growth inhibition of human DMS-114 cells assessed as reduction in cell viability incubated for 72 hrs. Type of data set: functional.
Data set [2] in a line: Growth inhibition of human CCD-841CoN cells assessed as reduction in cell viability incubated for 72 hrs. Type of data set: toxicity, cell-based.
Data set [3] is described as follows: Growth inhibition of mouse FL83B cells assessed as reduction in cell viability incubated for 72 hrs. Type of data set: toxicity, cell-based.
The nature of data set [4]: Metabolic stability in CD1 mouse plasma assessed as half life measured after 10 mins by LC-MS analysis. The data set is classed as ADME, cell-free.
A short description of data set [5]: Synergistic antiproliferative activity against human Osimertinib-resistant HCC827AR cell assessed as combination index at 2.5 nM incubated for 72 hrs in presence of 0.25 uM osimertinib by WST-1 assay. Type of data set: functional.
Data set [6] in a line: Synergistic antiproliferative activity against human Osimertinib-resistant HCC827AR cell assessed as combination index at 2.5 nM incubated for 72 hrs in presence of 0.50 uM osimertinib by WST-1 assay. The data set is classed as functional. Background: Tetrazolium dyes change colour on reduction, which living cells bring about.
Data set [7] is described as follows: Synergistic antiproliferative activity against human Osimertinib-resistant HCC827AR cell assessed as combination index at 2.5 nM incubated for 72 hrs in presence of 1 uM osimertinib by WST-1 assay. The data set is classed as functional.
Data set [8] can be described thus: Synergistic antiproliferative activity against human Osimertinib-resistant HCC827AR cell assessed as combination index at 2.5 nM incubated for 72 hrs in presence of 2 uM osimertinib by WST-1 assay. The data set is classed as functional.
A short description of data set [9]: Synergistic antiproliferative activity against human Osimertinib-resistant HCC827AR cell assessed as combination index at 2.5 nM incubated for 72 hrs in presence of 4 uM osimertinib by WST-1 assay. Type of data set: functional.
The subject of data set [10] is HCT-116. Nature of the data set: Modulation of RNA splicing in human HCT-116 cells assessed as decrease in SF3B1 phosphorylation at thr313 residue by Western blot analysis. The conditions noted are these: dose 3-100 nM. The data set is classed as functional, cell-based. A general note: Immunoblotting shows a protein as a band on a membrane.
The subject of data set [11] is HCT-116. The experiment in a line: Modulation of RNA splicing in human HCT-116 cells assessed as decrease in MCL-1L expression by Western blot analysis. The conditions noted are these: dose 3-100 nM. The data set is classed as functional, cell-based.
In data set [12] the test system is HCT-116. Nature of the data set: Modulation of RNA splicing in human HCT-116 cells assessed as decrease in MCL-1S expression by Western blot analysis. Type of data set: functional, cell-based. The settings on record: dose 3-100 nM.
A short description of data set [13]: Metabolic stability in CD1 mouse plasma assessed as half life measured after 48 hrs by LC-MS analysis. The data set is classed as ADME, cell-free.
The nature of data set [14]: Metabolic stability in CD1 mouse plasma measured after 48 hrs by LC-MS analysis. The data set is classed as ADME, cell-free.

On to `CC(=O)O[C@@H](C)/C=C\C(=O)N[C@@H]1C[C@H](C)[C@H](C/C=C(C)/C=C/[C@H]2OC(C)(C)C[C@@]3(CO3)[C@@H]2O)O[C@@H]1C`, for which the GI50 (commonly the concentration at which growth is held to half of that of the control) in the data set on HCT-116 [1] amounted to 0.7 nM; in the data set on SW48, 0.9 nM; in the data set with A549 it was 0.0027 µM; in the data set on DMS-53 it was 0.0005 µM; with DMS-114 it was 0.4 nM. For the same compound, the GI50 at 72 h was found to be 2 nM in [2] and 0.9 nM in data set [3]. Besides, in [4], the half-life – broadly, the time in which the quantity being followed falls by half – stood at 1 min.

For `COCO[C@@H](C)/C=C\C(=O)N(C)[C@@H]1CC[C@H](C/C=C(C)/C=C/[C@H]2OC(C)(C)C[C@@]3(CO3)[C@@H]2O)O[C@@H]1C`, the GI50 in the data set on HCT-116 [1] was 16000 nM; in the data set on SW48, 16000 nM; with A549, 34 µM; with DMS-53, 23 µM; with DMS-114, 8700 nM.

In the case of `Cc1c(-c2c(-c3ccc(F)o3)sc3ncnc(O[C@H](Cc4ccccc4OCc4ccnn4CC(F)(F)F)C(=O)O)c23)ccc(OCCN2CCN(C)CC2)c1Cl`, the CI in data set [5] is recorded as 0.38; in data set [6], 0.46; in data set [7], 0.55; in data set [8], 0.47; in [9], 0.42.

For `COCO[C@@H](C)/C=C\C(=O)N(C)[C@@H]1C[C@H](C)[C@H](C/C=C(C)/C=C/[C@H]2OC(C)(C)C[C@@]3(CO3)[C@@H]2O)O[C@@H]1C`, the 50% growth inhibitory concentration (GI50) with HCT-116 [1] was 4100 nM; in the data set with SW48, 4600 nM; with A549 it was 7.5 µM; with DMS-53, 6 µM; in the data set on DMS-114, 4900 nM.

For `COCO[C@@H](C)/C=C\C(=O)N[C@@H]1CC[C@H](C/C=C(C)/C=C/[C@H]2OC(C)(C)C[C@@]3(CO3)[C@@H]2O)O[C@@H]1C`, the GI50 in the data set on HCT-116 [1] stood at 10.5 nM; in the data set with SW48 it was 10.7 nM; with A549, 0.0086 µM; in the data set on DMS-53 it was 0.0149 µM; in the data set on DMS-114, 10.2 nM. Also, the GI50 at 72 h worked out at 63.2 nM in data set [2] and 35.7 nM in [3]. The Activity entry in the data set on HCT-116 [10], in the data set on HCT-116 [11] and in the data set with HCT-116 [12] was “Dose-Dependent Effect” each time. In addition, the half-life in data set [13] was 480 min. Besides, the Stability result in data set [14] was “Stable”.
